Data taken from patent US5916914A, “Compounds and method of treating psychosis and schizophrenia” (priority 1997, dated 1999).
pKi: −log10 of the molar value. Structures can show the parent of a compound that is named as a salt.

Key:
[1] = target: T1, human recombinant dopamine D4.2 receptor (Homo sapiens, UniProt P21917, DEL265-296); experiment: Receptor binding assay, D4.2 ([^3 H]spiperone)
T1 construct: expressed in transfected cells
T1 sequence (P21917 with tags, fused parts or gaps DEL265-296): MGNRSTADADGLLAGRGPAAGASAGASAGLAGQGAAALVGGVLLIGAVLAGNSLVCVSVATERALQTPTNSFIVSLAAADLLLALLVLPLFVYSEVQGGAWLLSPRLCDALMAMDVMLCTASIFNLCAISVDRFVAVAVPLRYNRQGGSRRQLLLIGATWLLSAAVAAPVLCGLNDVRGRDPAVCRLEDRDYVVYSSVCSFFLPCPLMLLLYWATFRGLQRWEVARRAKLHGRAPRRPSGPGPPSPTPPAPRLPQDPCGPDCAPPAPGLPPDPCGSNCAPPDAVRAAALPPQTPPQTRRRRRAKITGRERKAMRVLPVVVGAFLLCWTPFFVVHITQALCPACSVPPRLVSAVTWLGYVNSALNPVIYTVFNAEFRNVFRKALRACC
Excerpt: (§1) A cell line expressing human dopamine D2 (Long form) receptors was purchased from Oregon Health Sciences University, Portland, Oreg. The D2 receptor cDNA was subcloned into an expression vector, pRc/CMV. The plasmids were transfected by electroporation into CHO K1 cells. A single stable transfectant, resistant to the antibiotic G418, was isolated and selected for use in the binding studies. For D4 binding, CHO K1 cells stably transfected to express the human recombinant dopamine D4.2 receptor subtype, as described by Shih, et al., "The expression and functional characterization of human dopamine D4.2 receptor in CHO K1 cells," Soc. Neurosci., 1995;21 (Part 1):621 were used.
(§2) CHO K1 cells expressing either human D2 and D4.2 receptors were grown in 162 cm^2 culture flasks in F12 medium (Gibco Laboratories, Grand Island, N.Y.) supplemented with 10% fetal bovine serum (FBS, Hyclone, Logan, Utah) in an atmosphere of 5% CO2 /95% air at 37 EC. Cells were grown until confluent, after which growth medium was removed and replaced with 0.02% ethylene diamine tetracetate (EDTA) in a phosphate-buffered saline solution (Sigma Chemical Co., St. Louis, Mo.) and scraped from the flasks. The cells were centrifuged at about 1000×g for 10 minutes at 4° C. and then resuspended in TEM buffer (25 mM Tris-HCL, pH 7.4, 5 mM EDTA, and 6 mM MgCl2) for D2 or the D4.2 buffer (50 mM Tris-HCl, pH 7.4, 5 mM EDTA, 1.5 mM CaCl2, 5 mM KCl, and 120 mM NaCl) and homogenized. The membranes were pelleted by centrifugation at 20000×g at 4° C. for 20 minutes. Then the pellets were resuspended in appropriate buffer at 1 mL/flask and stored at -70° C. until used in the receptor binding assay.
(§3) After 60 minutes incubation at 25° C., the incubations were terminated by rapid filtration through Whatmann GF/B glass fibre filters (soaked for 1 hour in 0.5% polyethylenimine) on a cell harvester, with three washes of 1 mL ice-cold buffer. Individual filter disks containing the bound ligand were placed in counting vials with 4 mL of scintillation fluid (Ready Gel, Beckman Instrument, Inc., Fullerton, Calif.) and then counted in a Beckman LS-6800 liquid scintillation counter at an efficiency of 45%. Nonspecific binding was defined in presence of 1 mM of haloperidol.
(§4) Saturation and competition binding data were analyzed using an iterative nonlinear least square curve-fitting Ligand program. […] Experimental compounds were made up as stock solutions in dimethyl sulfoxide (DMSO). […] Each observation was carried out in triplicate. To allow these calculations, Kd values were measured for the interaction of various ligands with the receptor. […]

[2] = target: human dopamine D2 (Long form) receptors (Homo sapiens, UniProt P14416); experiment: biochemical; format: binding
Chain of human dopamine D2 (Long form) receptors (P14416 whole entry): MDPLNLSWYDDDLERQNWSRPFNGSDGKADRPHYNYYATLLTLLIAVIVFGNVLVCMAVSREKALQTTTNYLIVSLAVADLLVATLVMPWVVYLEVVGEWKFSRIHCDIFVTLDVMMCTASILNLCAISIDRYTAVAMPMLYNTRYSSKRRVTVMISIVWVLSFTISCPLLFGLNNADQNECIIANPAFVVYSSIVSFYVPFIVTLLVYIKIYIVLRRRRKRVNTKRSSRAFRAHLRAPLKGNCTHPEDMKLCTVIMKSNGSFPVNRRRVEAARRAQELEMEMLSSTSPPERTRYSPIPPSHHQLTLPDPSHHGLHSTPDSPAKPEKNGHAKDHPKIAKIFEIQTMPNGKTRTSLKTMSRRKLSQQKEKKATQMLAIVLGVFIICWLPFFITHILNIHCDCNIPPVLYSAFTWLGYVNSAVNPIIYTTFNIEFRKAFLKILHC
Excerpt: as §1, §2, §3, §4

Row | pKi [1] | pKi [2] | SMILES
1 | 7.89 | 6.24 | c1ccc(OCCCNCCOc2ccc3ncccc3c2)cc1 [Example 2a, (3-Phenoxy-propyl)-[2-quinolin-6-yloxy)-ethyl]-amine hydrochloride]
2 | 8.80 | 6.60 | O=c1ccc2ccc(OCCNCCCOc3ccccc3)cc2o1 [Example 2c, 7-[2-(3-Phenoxy-propylamino)-ethoxy]-chromen-2-one hydrochloride]
3 | 7.10 | – | c1ccc(OCCCNCCOc2ccc3oc4ccccc4c3c2)cc1 [Example 2d, [2-(Dibenzofuran-2-yloxy)-ethyl]-(3-phenoxypropyl)-amine hydrochloride]
4 | 8.72 | 6.64 | Cc1cc(=O)oc2cc(OCCNCCCOc3ccccc3)ccc12 [Example 3, 4-Methyl-7-[2-(3-phenoxy-propylamino)-ethoxy]-chromen-2-one Hydrochloride]
5 | 7.15 | – | Cc1cc(=O)oc2ccc(OCCNCCCOc3ccccc3)cc12 [Example 3a, 4-Methyl-6-[2-(3-phenoxy-propylamino)-ethoxy]-chromen-2-one hydrochloride]
6 | 8.92 | 6.30 | c1ccc(OCCCNCCOc2ccc3occc3c2)cc1 [Example 3b, [2-(Benzofuran-5-yloxy)-ethyl]-(3-phenoxy-propyl)-amine hydrochloride]
7 | 7.02 | – | O=c1ccc2ccc(CNCCNc3ccc(CO)c(Cl)c3)cc2o1 [Example 4a, 7-{[2-(3-Chloro-4-hydroxymethyl-phenylamino)-ethylamino]-methyl}-chromen-2-one]
8 | 7.38 | – | O=c1ccc2ccc(CNCCNc3cccc(Cl)c3)cc2o1 [Example 4d, 7-{[2-(3-Chloro-phenylamino)-ethylamino]-methyl}-chromen-2-one dihydrochloride]
9 | 6.51 | – | O=c1ccc2cc(CNCCNc3ccccc3)ccc2o1 [Example 4g, 6-[(2-Phenylamino-ethylamino)-methyl]-chromen-2-one]
10 | 7.51 | – | O=c1ccc2ccc(CNCCCNc3ccccc3)cc2o1 [Example 4i, 7-[(3-Phenylamino-propylamino)-methyl]-chromen-2-one]
11 | 7.19 | – | O=c1ccc2cc(CNCCOc3ccccc3)ccc2o1 [Example 4j, 6-[(2-Phenoxy-ethylamino)-methyl]-chromen-2-one hydrochloride]
12 | 7.62 | 5.23 | Cc1ccc(OCCNCc2ccc3oc(=O)ccc3c2)cc1 [Example 4k, 6-[(2-p-Tolyloxy-ethylamino)-methyl]-chromen-2-one]
13 | 7.87 | 5.31 | O=c1ccc2cc(CNCCOc3ccc(Cl)cc3)ccc2o1 [Example 4l, 6-{[2-(4-Chloro-phenoxy)-ethylamino]-methyl}-chromen-2-one]
14 | 7.37 | – | O=c1ccc2ccc(CNCCOc3ccccc3)cc2o1 [Example 4m, 7-[(2-Phenoxy-ethylamino)-methyl]-chromen-2-one]
15 | 8.41 | 6.71 | Cc1ccc(OCCNCc2ccc3ccc(=O)oc3c2)cc1 [Example 4n, 7-[(2-p-Tolyloxy-ethylamino)-methyl]-chromen-2-one]
16 | 8.02 | 6.54 | O=c1ccc2ccc(CNCCOc3ccc(Cl)cc3)cc2o1 [Example 4o, 7-{[2-(4-Chloro-phenoxy)-ethylamino]-methyl}-chromen-2-one]
17 | 6.40 | – | O=c1ccc2ccc(CNCCSc3ccccc3)cc2o1 [Example 4p, 7-[(2-Phenylsulfanyl-ethylamino)-methyl]-chromen-2-one hydrochloride]
18 | 7.22 | – | O=c1ccc2ccc(CNCCCc3ccccc3)cc2o1 [Example 4q, 7-[(3-Phenyl-propylamino)-methyl]-chromen-2-one]
19 | 7.04 | – | O=c1ccc2ccc(CNCCCOc3ccc(Cl)cc3)cc2o1 [Example 4r, 7-{[3-(4-Chloro-phenoxy)-propylamino]-methyl}-chromen-2-one]
20 | 6.63 | – | Cc1ccc(OCCCNCc2ccc3ccc(=O)oc3c2)cc1 [Example 4s, 7-[(3-p-Tolyloxy-propylamino)-methyl]-chromen-2-one]
21 | 7.70 | 5.97 | O=c1ccc2cc(CNCCCOc3ccccc3)ccc2o1 [Example 4t, 6-[(3-Phenoxy-propylamino)-methyl]-chromen-2-one]
